Data taken from patent US10238623B2, “C14-hydroxyl esterified amino acid derivative of triptolide, and preparation method and use thereof” (HANGZHOU WEBEN PHARMACEUTICALS INC, priority 2015, dated 2019).
Where “and” joins values, the source holds several entries; their conditions need not be identical. Identical values can stand only once.

Experiments:
[1] = Body weight and organ examination of tumour-bearing mice; format: in vivo, NOD/SCID mice; conditions: for Body weight: mice bearing KG-1a and THP-1, 14 days, individual mice, listed as DV
Protocol: (§1) 7-week old female NOD/SCID mice were taken and inoculated subcutaneously with 1×10^7 cells (0.2 ml) per mouse in axilla, with human acute myelogenous leukemia KG-1a cells on the left and human acute monocytic leukemia THP-1 cells on the right. When tumors grew to a tumor size of around 0.5 cm, the mice were randomized into groups with 3 mice each. An equivalent amount of PBS was used for the control group, and the 14-D-Valine-TPL group was divided into two groups with 0.2 mg/kg body weight and 0.4 mg/kg body weight: intragastric administration 2 times a day (one at 8 a.m. and one at 4 p.m.) for consecutive 14 days of treatment. An observation was made for total 30 days, during which the conditions of the mice such as tumor size, weight, activity, diet, and the like were measured. At the end of the experiment, the mice were sacrificed, tumor tissues were taken and the tumors were weighed, and major organs and tissues of the mice such as liver, spleen, heart, lung, large intestine, small intestine, and the like were examined.
as §1, with “the left.” for “the left and human acute monocytic leukemia THP-1 cells on the right.”, “around 50-100 mm^3,” for “around 0.5 cm,”, “the TPL-LLV” for “the 14-D-Valine-TPL”, “with 0.23” for “with 0.2”, “and 0.46” for “and 0.4”, “intragastric administration,” for “intragastric administration”
as §1, with “the left.” for “the left and human acute monocytic leukemia THP-1 cells on the right.”, “around 50-100 mm^3,” for “around 0.5 cm,”, “the TPL-DLV” for “the 14-D-Valine-TPL”, “with 0.23” for “with 0.2”, “and 0.46” for “and 0.4”, “intragastric administration,” for “intragastric administration”
7-week old female NOD/SCID mice were taken and inoculated subcutaneously with 1×10^7 cells (0.2 ml) per mouse in axilla, with human acute myelogenous leukemia KG-1a cells on the left. When tumors grew to a tumor size of around 50-100 mm^3, the mice were randomized into groups with 3 mice each. An equivalent amount of PBS was used for the control group, and the TPL-DLV group was divided into two groups with 0.32 mg/kg body weight and 0.64 mg/kg body weight: intragastric administration, 2 times a day (one at 8 a.m. and one at 4 p.m.) for consecutive 14 days of treatment. An observation was made for total 30 days, during which the conditions of the mice such as tumor size, weight, activity, diet, and the like were measured. At the end of the experiment, the mice were sacrificed, tumor tissues were taken and the tumors were weighed, and major organs and tissues of the mice such as liver, spleen, heart, lung, large intestine, small intestine, and the like were examined. […]

Sup-B15 = assay: MTT growth inhibition, Sup-B15 cells, 72 h; format: cell-based, human
Protocol: (§2) 5000 well-grown leukemia cells or normal human blood cells were taken and seeded into wells of a 96-well cell culture plate. The medium was 1640 cell medium containing 10% fetal bovine serum. 14-D-Valine-TPL with different concentrations was added, and after being uniformly mixed, the plate was placed in a carbon dioxide (5% CO2) cell incubator, and incubated at 37° C. for 72 hours. The concentration of live cells was then determined using the MTT assay. In this experiment, the cell viability in the control group (without the compound treatment) was set to be 100%, and the cell viability (%) after the action of the compound the half maximal growth inhibitory concentration of leukemia cells at 72 hours (IC50 value at 72 hours) and the therapeutic window index were calculated. Therapeutic window index=IC50 value of normal blood cells/IC50 value of leukemia cells. […] A larger therapeutic window indicates a better selectivity of the compound for tumor cells.
(§3) 5000 well-grown leukemia cells were taken and seeded into wells of a 96-well cell culture plate. The medium was 1640 cell medium containing 10% fetal bovine serum. 14-D-Valine-TPL with different concentrations was added, and after being uniformly mixed, the plate was placed in a carbon dioxide (5% CO2) cell incubator, and incubated at 37° C. for 72 hours. The concentration of live cells was then determined using the MTT assay. In this experiment, the cell viability in the control group (without the compound treatment) was set to be 100%, and the cell viability (%) after the action of the compound and the half maximal growth inhibitory concentration of leukemia cells at 72 hours (IC50 value at 72 hours) were calculated.
as §3, with “well-grown lymphocytes” for “well-grown leukemia cells”

CEM = assay: MTT growth inhibition, CEM cells, 72 h; format: cell-based, human
Protocol: as §2, §3
as §3, with “well-grown lymphocytes” for “well-grown leukemia cells”

XPB = target: T1, XPB (Homo sapiens, UniProt P19447); assay: Immunoblot of XPB level in THP-1 cells, 48 h; format: cell-based; conditions: 160 nM
T1 construct: endogenous in cells; host or cells: THP-1
T1 sequence (P19447 whole entry): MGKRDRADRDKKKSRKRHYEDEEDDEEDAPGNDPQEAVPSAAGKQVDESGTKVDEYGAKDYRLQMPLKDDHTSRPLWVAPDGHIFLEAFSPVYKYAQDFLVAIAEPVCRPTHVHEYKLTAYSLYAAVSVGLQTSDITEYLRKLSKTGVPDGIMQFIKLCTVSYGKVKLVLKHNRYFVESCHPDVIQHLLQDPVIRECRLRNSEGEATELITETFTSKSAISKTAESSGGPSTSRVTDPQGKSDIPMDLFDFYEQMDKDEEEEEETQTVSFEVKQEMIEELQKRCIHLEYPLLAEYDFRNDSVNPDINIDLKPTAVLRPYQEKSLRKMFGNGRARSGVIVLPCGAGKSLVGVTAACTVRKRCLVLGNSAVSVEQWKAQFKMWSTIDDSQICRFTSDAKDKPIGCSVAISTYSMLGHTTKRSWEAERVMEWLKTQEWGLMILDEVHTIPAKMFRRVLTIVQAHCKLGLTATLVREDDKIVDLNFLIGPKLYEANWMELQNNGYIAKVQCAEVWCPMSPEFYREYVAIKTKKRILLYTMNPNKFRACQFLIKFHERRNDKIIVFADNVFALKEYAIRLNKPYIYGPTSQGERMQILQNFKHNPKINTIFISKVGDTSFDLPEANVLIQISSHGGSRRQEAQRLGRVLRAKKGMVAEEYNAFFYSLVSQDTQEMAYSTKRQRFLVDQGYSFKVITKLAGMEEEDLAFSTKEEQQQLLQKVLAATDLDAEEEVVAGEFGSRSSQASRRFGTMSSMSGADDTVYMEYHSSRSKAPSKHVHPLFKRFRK
Protocol: Well-grown leukemia cells were taken and seeded into wells of a 6-well cell culture plate, with a density of 1×10^6/ml. The medium was 1640 cell medium containing 10% fetal bovine serum. 14-D-Valine-TPL with different concentrations was added, and after being uniformly mixed, the plate was placed in a carbon dioxide (5% CO2) cell incubator, and incubated at 37° C. for 48 hours. Cellular proteins were then extracted, and the immunoblot technique was used to detect the expression levels of XPB and Pol II.

Jurkat = assay: MTT growth inhibition, Jurkat cells, 72 h; format: cell-based, human
Protocol: as §2, §3
as §3, with “well-grown lymphocytes” for “well-grown leukemia cells”

KG-1a = assay: MTT growth inhibition, KG-1a cells, 72 h; format: cell-based; conditions: Homo sapiens
Protocol: as §3

## CC(C)[C@@H](N)C(=O)O[C@@H]1[C@@]2(C(C)C)O[C@H]2[C@@H]2O[C@]23[C@]12O[C@H]2C[C@H]1C2=C(CC[C@@]13C)C(=O)OC2 [14-D-Valine-TPL, 14-Dextro-Valine-Triptolide]
[1]; dose of 0.4 mg per kilogram of the body weight
  weight loss in the mice (in words): no significant weight losses
[1]; 0.2 mg/kg intragastric 2 times a day, mice bearing KG-1a xenografts
  Body weight: 18.5 g and 20.2 g and 19.9 g and 18.1 g and 19.0 g and 20.4 g
[1]; 0.2 mg/kg intragastric 2 times a day, mice bearing THP-1 xenografts
  Body weight: 18.5 g and 20.2 g and 19.9 g and 18.1 g and 19.0 g and 20.4 g
[1]; 0.4 mg/kg intragastric 2 times a day, mice bearing KG-1a xenografts
  Body weight: 20.4 g and 21.0 g and 21.1 g and 21.4 g and 20.8 g and 19.1 g
[1]; 0.4 mg/kg intragastric 2 times a day, mice bearing THP-1 xenografts
  Body weight: 20.4 g and 21.0 g and 21.1 g and 21.4 g and 20.8 g and 19.1 g
[1]; mice of Example 9
  anatomical examination of major organs (heart, lung, liver, spleen, large intestine, small intestine): no significant abnormalities
Sup-B15; Homo sapiens, SUP-B15, 72 h
  IC50: 20.7 nM
Sup-B15; IC50 of normal blood cells/IC50 of Sup-B15
  Therapeutic window: 9.73
CEM; Homo sapiens, CCRF-CEM, 72 h
  IC50: 25.5 nM
CEM; IC50 of normal blood cells/IC50 of CEM
  Therapeutic window: 7.89
XPB
  level of XPB (immunoblot): significantly inhibited
Jurkat; Homo sapiens, Jurkat, 72 h
  IC50: 36.3 nM
Jurkat; IC50 of normal blood cells/IC50 of Jurkat
  Therapeutic window: 5.54
KG-1a
  IC50: 31 nM
